One block for each molecule: values may come before it.
What was measured:
CDK4/Cyclin D3 = CDK4/Cyclin D3 (Homo sapiens, UniProt P11802); assay: Inhibition of recombinant N-terminal GST/His6-fusion tagged human CDK4/Cyclin D3 expressed in Sf9 insect cells using 5-FAM-IPTSPITTTYFFFKKK as substrate preincubated for 10 mins followed by substrate addition and incubated for 3 hrs in presence of ATP by caliper mobility shift analysis
[1] = target: T1, Tyrosine-protein phosphatase non-receptor type 11 (Homo sapiens, UniProt Q06124); assay: Inhibition of SHP2 (unknown origin) using DiFMUP as substrate incubated for 60 mins followed by substrate addition for 30 mins by microplate reader method
T1 sequence (Q06124 whole entry): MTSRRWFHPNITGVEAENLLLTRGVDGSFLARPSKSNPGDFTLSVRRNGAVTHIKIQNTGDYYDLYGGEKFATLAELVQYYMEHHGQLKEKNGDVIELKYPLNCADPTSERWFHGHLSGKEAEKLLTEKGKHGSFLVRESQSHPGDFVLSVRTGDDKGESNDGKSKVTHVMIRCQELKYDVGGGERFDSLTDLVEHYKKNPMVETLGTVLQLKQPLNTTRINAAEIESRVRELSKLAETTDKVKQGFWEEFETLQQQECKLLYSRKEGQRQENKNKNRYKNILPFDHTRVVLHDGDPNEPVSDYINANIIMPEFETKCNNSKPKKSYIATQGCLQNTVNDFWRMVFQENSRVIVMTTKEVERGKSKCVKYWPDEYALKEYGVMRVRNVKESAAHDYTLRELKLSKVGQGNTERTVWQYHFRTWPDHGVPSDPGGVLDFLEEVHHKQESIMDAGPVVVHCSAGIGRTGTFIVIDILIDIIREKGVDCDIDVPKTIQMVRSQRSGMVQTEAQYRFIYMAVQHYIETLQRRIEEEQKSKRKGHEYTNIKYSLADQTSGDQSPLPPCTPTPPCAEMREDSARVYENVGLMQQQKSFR

EMT6 [2] = assay: Antiproliferative activity against mouse EMT6 cells assessed as inhibition of cell growth incubated for 48 hrs by MTT assay; type: functional, cell-based
MDA-MB-231 [3] = assay: Antiproliferative activity against human MDA-MB-231 cells assessed as inhibition of cell growth incubated for 48 hrs by MTT assay; type: functional, cell-based
MDA-MB-468 [4] = assay: Antiproliferative activity against human MDA-MB-468 cells assessed as inhibition of cell growth incubated for 48 hrs by MTT assay; type: functional, cell-based
MDA-MB-231 [5] = assay: Induction of apoptosis in human MDA-MB-231 cells assessed as early apoptotic cells at 3 uM measured after 48 hrs by Annexin V-FITC/PI staining based flow cytometric analysis (reference value: 0.32%); type: functional
MDA-MB-231 [6] = assay: Induction of apoptosis in human MDA-MB-231 cells assessed as late apoptotic cells at 3 uM incubated for 48 hrs in presence of abemaciclib by Annexin V-FITC/PI staining based flow cytometric analysis (reference value: 1.06%); type: functional
MDA-MB-231 [7] = tested on: MDA-MB-231
MDA-MB-231 [8] = assay: Induction of cell cycle arrest in human MDA-MB-231 cells assessed as accumulation of cells in G0/G1 phase at 3 uM incubated for 48 hrs in presence of abemaciclib by RNase/propidium iodide staining based flow cytometry analysis (reference value: 26.2%); type: functional
EMT6 [9] = assay: Antitumor activity in mouse EMT6 cells implanted in BALB/c syngenic mouse model assessed as tumor growth inhibition at 40 mg/kg, po qd in presence of abemaciclib measured after 18 days relative to control; type: functional; conditions: EMT6, 432 h, time 18 day, read-out: TGI
MDA-MB-231 [10] = assay: Induction of cell cycle arrest in human MDA-MB-231 cells assessed as accumulation of cells in G2/M phase at 3 uM incubated for 48 hrs by RNase/propidium iodide staining based flow cytometry analysis (reference value: 2.7%); type: functional
EMT6 [11] = tested on: EMT6
MDA-MB-231 [12] = assay: Induction of apoptosis in human MDA-MB-231 cells assessed as late apoptotic cells at 3 uM measured after 48 hrs by Annexin V-FITC/PI staining based flow cytometric analysis (reference value: 1.06%); type: functional
MDA-MB-231 [13] = assay: Induction of cell cycle arrest in human MDA-MB-231 cells assessed as accumulation of cells in S phase at 3 uM incubated for 48 hrs in presence of abemaciclib by RNase/propidium iodide staining based flow cytometry analysis (reference value: […]); type: functional
EMT6 [14] = assay: Antitumor activity against mouse EMT6 cells implanted in BALB/c mouse syngenic model assessed as tumor growth inhibition at 40 mg/kg, po qd and measured after 18 days relative to control; type: functional; conditions: EMT6, 432 h, time 18 day, read-out: TGI
MDA-MB-231 [15] = assay: Induction of apoptosis in human MDA-MB-231 cells assessed as viable cells at 3 uM incubated for 48 hrs in presence of abemaciclib by Annexin V-FITC/PI staining based flow cytometric analysis (reference value: 98.04%); type: functional; conditions: read-out: Activity
MDA-MB-231 [16] = assay: Induction of cell cycle arrest in human MDA-MB-231 cells assessed as accumulation of cells in G0/G1 phase at 3 uM incubated for 48 hrs by RNase/propidium iodide staining based flow cytometry analysis (reference value: 26.2%); type: functional
MDA-MB-231 [17] = assay: Induction of apoptosis in human MDA-MB-231 cells assessed as necrotic cells at 3 uM measured after 48 hrs by Annexin V-FITC/PI staining based flow cytometric analysis (reference value: 0.58%); type: functional
MDA-MB-231 [18] = assay: Induction of cell cycle arrest in human MDA-MB-231 cells assessed as accumulation of cells in G2/M phase at 3 uM incubated for 48 hrs in presence of abemaciclib by RNase/propidium iodide staining based flow cytometry analysis (reference value: 2.7%); type: functional
MDA-MB-468 [19] = tested on: MDA-MB-468
MDA-MB-231 [20] = assay: Induction of cell cycle arrest in human MDA-MB-231 cells assessed as accumulation of cells in S phase at 3 uM incubated for 48 hrs by RNase/propidium iodide staining based flow cytometry analysis (reference value: […]); type: functional
MDA-MB-231 [21] = assay: Induction of apoptosis in human MDA-MB-231 cells assessed as viable cells at 3 uM measured after 48 hrs by Annexin V-FITC/PI staining based flow cytometric analysis (reference value: 98.04%); type: functional; conditions: read-out: Activity
MDA-MB-231 [22] = assay: Induction of apoptosis in human MDA-MB-231 cells assessed as necrotic cells at 3 uM incubated for 48 hrs in presence of abemaciclib by Annexin V-FITC/PI staining based flow cytometric analysis (reference value: 0.58%); type: functional
MDA-MB-231 [23] = assay: Induction of apoptosis in human MDA-MB-231 cells assessed as early apoptotic cells at 3 uM incubated for 48 hrs in presence of abemaciclib by Annexin V-FITC/PI staining based flow cytometric analysis (reference value: 0.32%); type: functional

Sequence of CDK4/Cyclin D3 (P11802 whole entry, the tested form may be a part): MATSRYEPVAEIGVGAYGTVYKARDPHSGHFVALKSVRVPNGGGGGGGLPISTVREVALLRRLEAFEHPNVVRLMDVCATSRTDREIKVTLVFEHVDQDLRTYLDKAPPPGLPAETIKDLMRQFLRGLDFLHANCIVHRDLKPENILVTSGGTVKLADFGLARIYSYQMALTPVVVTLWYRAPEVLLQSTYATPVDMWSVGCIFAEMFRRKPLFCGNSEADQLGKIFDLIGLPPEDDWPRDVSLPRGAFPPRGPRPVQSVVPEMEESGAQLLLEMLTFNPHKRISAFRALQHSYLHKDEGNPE
Sequence of CDK4/Cyclin D3 (P30281 whole entry, further chain, the tested form may be a part): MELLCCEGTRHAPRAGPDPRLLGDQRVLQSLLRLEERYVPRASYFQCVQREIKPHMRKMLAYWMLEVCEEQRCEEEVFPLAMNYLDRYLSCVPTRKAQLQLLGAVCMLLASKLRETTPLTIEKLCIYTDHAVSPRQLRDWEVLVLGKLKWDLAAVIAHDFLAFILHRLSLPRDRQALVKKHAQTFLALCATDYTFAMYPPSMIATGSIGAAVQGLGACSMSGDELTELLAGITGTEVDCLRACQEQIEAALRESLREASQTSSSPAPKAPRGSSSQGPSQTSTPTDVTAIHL

Compound: Cc1nc2c(F)cc(-c3nc(Nc4nccc(Sc5cnc(N6CCC7(CC6)Cc6ccccc6[C@H]7N)cn5)c4Cl)ncc3F)cc2n1C(C)C
IC50 (EMT6 [2]; Mus musculus, EMT6, 48 h): 1070 nM
IC50 [1]: 8.2 nM
IC50 (MDA-MB-231 [3]; Homo sapiens, MDA-MB-231, 48 h): 4440 nM
IC50 (CDK4/Cyclin D3): 95.9 nM
IC50 (MDA-MB-468 [4]; Homo sapiens, MDA-MB-468, 48 h): 3900 nM

Compound: C[C@@H]1OCC2(CCN(c3cnc(Sc4ccnc(N)c4Cl)c(N)n3)CC2)[C@@H]1N [BATOPROTAFIB]
Activity (MDA-MB-231 [5]): 7.32%
IC50 (EMT6 [2]; emt6): 7030 nM
Activity (MDA-MB-231 [6]): 12.42%
IC50 (MDA-MB-231 [7]): 12900 nM
Activity (MDA-MB-231 [8]): 44.8%
IC50 (MDA-MB-231 [3]; mda-mb-231): > 20000 nM
inhibition in vivo at 40 mg/kg (EMT6 [9]): 74%
Activity (MDA-MB-231 [10]): 2.6%
IC50 (EMT6 [11]): 2490 nM
Activity (MDA-MB-231 [12]): 9.13%
Activity (MDA-MB-231 [13]): 53.2%
inhibition in vivo at 40 mg/kg (EMT6 [14]): 60%
viability at 3 µM (MDA-MB-231 [15]): 78.5%
Activity (MDA-MB-231 [16]): 40.7%
Activity (MDA-MB-231 [17]): 1.07%
Activity (MDA-MB-231 [18]): 2%
IC50 (MDA-MB-468 [19]): 3110 nM
IC50 (MDA-MB-468 [4]; mda-mb-468): > 20000 nM
Activity (MDA-MB-231 [20]): 56.7%
viability at 3 µM (MDA-MB-231 [21]): 82.5%
Activity (MDA-MB-231 [22]): 0.95%
Activity (MDA-MB-231 [23]): 8.17%

Compound: CCN1CCN(Cc2ccc(Nc3ncc(F)c(-c4cc(F)c5nc(C)n(C(C)C)c5c4)n3)nc2)CC1 [ABEMACICLIB]
Activity (MDA-MB-231 [5]): 5.86%
IC50 (EMT6 [2]; Mus musculus, EMT6, 48 h): 4180 nM
IC50 (MDA-MB-231 [3]; Homo sapiens, MDA-MB-231, 48 h): > 20000 nM
Activity (MDA-MB-231 [10]): 2.7%
Activity (MDA-MB-231 [12]): 6.73%
inhibition in vivo at 40 mg/kg (EMT6 [14]): 35%
Activity (MDA-MB-231 [16]): 37.1%
Activity (MDA-MB-231 [17]): 1.42%
IC50 (MDA-MB-468 [4]; Homo sapiens, MDA-MB-468, 48 h): > 20000 nM
Activity (MDA-MB-231 [20]): 60.2%
viability at 3 µM (MDA-MB-231 [21]): 86%

Compound: Cc1nc2c(F)cc(-c3nc(Nc4cccc(Sc5cnc(N6CCC7(CC6)CO[C@@H](C)[C@H]7N)cn5)c4Cl)ncc3F)cc2n1C(C)C
IC50 (EMT6 [2]; Mus musculus, EMT6, 48 h): 580 nM
IC50 [1]: 16.5 nM
IC50 (MDA-MB-231 [3]; Homo sapiens, MDA-MB-231, 48 h): 4550 nM
IC50 (CDK4/Cyclin D3): 6.7 nM
IC50 (MDA-MB-468 [4]; Homo sapiens, MDA-MB-468, 48 h): 9100 nM

Compound: Cc1nc2c(F)cc(-c3nc(Nc4ccc(Sc5cnc(N6CCC7(CC6)CO[C@@H](C)[C@H]7N)cn5)c(Cl)c4)ncc3F)cc2n1C(C)C
IC50 (EMT6 [2]; Mus musculus, EMT6, 48 h): 1660 nM
IC50 (MDA-MB-231 [3]; Homo sapiens, MDA-MB-231, 48 h): 3240 nM
IC50 (CDK4/Cyclin D3): 7 nM
IC50 (MDA-MB-468 [4]; Homo sapiens, MDA-MB-468, 48 h): 10300 nM

Compound: Cc1nc2c(F)cc(-c3nc(Nc4cc(Sc5cnc(N6CCC7(CC6)CO[C@@H](C)[C@H]7N)cn5)ccn4)ncc3F)cc2n1C(C)C
IC50 (EMT6 [2]; Mus musculus, EMT6, 48 h): 1100 nM
IC50 [1]: 47.2 nM
IC50 (MDA-MB-231 [3]; Homo sapiens, MDA-MB-231, 48 h): 5130 nM
IC50 (CDK4/Cyclin D3): 16.1 nM
IC50 (MDA-MB-468 [4]; Homo sapiens, MDA-MB-468, 48 h): 9620 nM

Compound: Cc1nc2c(F)cc(-c3nc(Nc4ccc(Sc5cnc(N6CCC7(CC6)CO[C@@H](C)[C@H]7N)cn5)c(Cl)n4)ncc3F)cc2n1C(C)C
IC50 (CDK4/Cyclin D3): 139 nM

Compound: Cc1nc2c(F)cc(-c3nc(Nc4cc(Cl)c(Sc5cnc(N6CCC7(CC6)CO[C@@H](C)[C@H]7N)cn5)cn4)ncc3F)cc2n1C(C)C
IC50 (CDK4/Cyclin D3): 8.8 nM

The remaining lines, values ahead:

IC50 (CDK4/Cyclin D3): 8.1 nM
Compound: CN(C)C(=O)c1cc2cnc(Nc3ccc(Sc4cnc(N5CCC(C)(N)CC5)cn4)cn3)nc2n1C1CCCC1

IC50 [1]: 52.1 nM
IC50 (CDK4/Cyclin D3): > 1000 nM
Compound: CN(C)C(=O)c1cc2cnc(Nc3ccc(Sc4cnc(N5CCC6(CC5)Cc5ccccc5[C@H]6N)cn4)c(Cl)c3)nc2n1C1CCCC1

IC50 [1]: 618 nM
IC50 (CDK4/Cyclin D3): 212 nM
Compound: Cc1nc2c(F)cc(-c3nc(Nc4ccc(Cl)c(Sc5cnc(N6CCC7(CC6)CO[C@@H](C)[C@H]7N)cn5)n4)ncc3F)cc2n1C(C)C

IC50 [1]: 3.2 nM
IC50 (CDK4/Cyclin D3): > 1000 nM
Compound: CN(C)C(=O)c1cc2cnc(Nc3nccc(Sc4cnc(N5CCC6(CC5)Cc5ccccc5[C@H]6N)cn4)c3Cl)nc2n1C1CCCC1

IC50 [1]: 205 nM
IC50 (CDK4/Cyclin D3): 9.1 nM
Compound: Cc1nc2c(F)cc(-c3nc(Nc4cnc(Sc5cnc(N6CCC7(CC6)CO[C@@H](C)[C@H]7N)cn5)c(Cl)c4)ncc3F)cc2n1C(C)C

IC50 (CDK4/Cyclin D3): 51.1 nM
Compound: CN(C)C(=O)c1cc2cnc(Nc3ccc(Sc4cnc(N5CCC(C)(N)CC5)cn4)c(Cl)n3)nc2n1C1CCCC1

IC50 (CDK4/Cyclin D3): > 1000 nM
Compound: Cc1nc2c(F)cc(-c3nc(Nc4cc(Sc5cnc(N6CCC7(CC6)CO[C@@H](C)[C@H]7N)cn5)c(Cl)cn4)ncc3F)cc2n1C(C)C

IC50 [1]: > 1000 nM
IC50 (CDK4/Cyclin D3): > 1000 nM
Compound: CN(C)C(=O)c1cc2cnc(Sc3cnc(N4CCC(C)(N)CC4)cn3)nc2n1C1CCCC1

IC50 [1]: 673 nM
IC50 (CDK4/Cyclin D3): 445 nM
Compound: Cc1nc2c(F)cc(-c3nc(Nc4ccc(Sc5cnc(N6CCC7(CC6)Cc6ccccc6[C@H]7N)cn5)c(Cl)n4)ncc3F)cc2n1C(C)C

IC50 [1]: 31.3 nM
IC50 (CDK4/Cyclin D3): 443 nM
Compound: CN(C)C(=O)c1cc2cnc(Nc3nccc(Sc4cnc(N5CCC(C)(N)CC5)cn4)c3Cl)nc2n1C1CCCC1

IC50 [1]: 34.1 nM
IC50 (CDK4/Cyclin D3): 519 nM
Compound: CN(C)C(=O)c1cc2cnc(Nc3ccc(Sc4cnc(N5CCC6(CC5)Cc5ccccc5[C@H]6N)cn4)c(Cl)n3)nc2n1C1CCCC1
